Results from patent US11261189B2, “Substituted 2,4 diamino-quinoline as new medicament for fibrosis, autophagy and cathepsins B (CTSB), L (CTSL) and D (CTSD) related diseases” (Genoscience Pharma, priority 2018, dated 2022).

What was measured:
[1] = test system: diethyl nitrosamine (DEN) cirrhotic rat model of liver fibrosis; assay: DEN induced cirrhosis in rats, study 2: Sirius red quantification of liver fibrosis; assay type: in vivo; details: group 4 (20/15): 20 mg/kg/day p.o. 4 weeks then 15 mg/kg/day 3 weeks; p=0.03
Procedure: A second in vivo experiment, with the same diethyl nitrosamine (DEN) cirrhotic rat animal model of liver fibrosis, was performed including compound 2-2 (base form of compound 2-3) with discontinued oral dosing schedule and compound 5-3 with daily oral exposure. Compounds 2-2 and 5-3 were administered p.o. by gavage (oral gavage) once daily during 7 weeks.
Rats were treated with DEN for 13 weeks (intra-peritoneal injections (i.p.) of 50 mg/kg/week) and then treated according to the Table 10 dosage schedule during 7 weeks. At the end of the study, all animals were sacrificed using CO2 and rat livers were collected for analysis. The quantification of the liver fibrotic tissue was evaluated by Sirius red staining of rat liver sections.
Group 1 contained 6 animals which were daily dosed (q.d.) by oral gavage (per os, p.o.) with the vehicle during 7 weeks.
Group 2 contained 8 animals and the corresponding animals were daily dosed (q.d.) by oral gavage (per os, p.o.) with compound 2-2 during 4 weeks at 20 mg/kg/day and then during 3 weeks at 20 mg/kg every 2 days (q.o.d.: quaque altera die, one day treated, on day untreated).
Group 3 contained 8 animals and the corresponding animals were daily dosed (q.d.) by oral gavage (per os, p.o.) with compound 2-2 during 3 weeks at 20 mg/kg/day, then 2 weeks of treatment free period, and were then daily dosed (q.d.) by oral gavage (per os, p.o.) with compound 2-2 during 2 weeks at 20 mg/kg/day.
Group 4 contained 8 animals and the corresponding animals were daily dosed (q.d.) by oral gavage (per os, p.o.) with compound 5-3 during 4 weeks at 20 mg/kg/day, and were then daily dosed (q.d.) by oral gavage (per os, p.o.) with compound 5-3 during 3 weeks at 15 mg/kg/day.
Compound 2-2 and 5-3 were formulated in water for injection acidified with hydrochloric acid to pH 4.

[2] = target: T1, cathepsin B (CTSB) (Homo sapiens, UniProt P07858); assay: Cathepsin B (CTSB) catalytic activity in lysates of treated HepG2 cells (Z-RR-AMC substrate); assay type: cell-based; details: HepG2; 7.5 μM, 6 hours and 24 hours
T1 construct: endogenous in cells; host or cells: HepG2
Procedure: (§1) Lysosomal functions was investigated in a hepatocellular carcinoma (HCC) cell line HepG2 after 6 hours and 24 hours of treatment with compound 2-3 (the hydrochloride salt form of compound 2-2) using functional assays of some lysosomal enzymes activity: two cysteine proteinases: cathepsin B (CTSB) and cathepsin L (CTSL), and one aspartic proteinase: cathepsin D (CTSD). Two sets of three concentrations of compound 2-3 (1 μM, 2 μM, and 4 μM for 6 hours, and 0.5 μM, 1 μM and 2 μM for 24 hours) were tested at least in triplicate and four independent experiments were performed. Salinomycin (7.5 μM for 6 hours and 24 hours) was used as a positive control.
(§2) The HepG2 cell line was maintained in DMEM (Dulbecco's Modified Eagle Media) high glucose (Cat #L0103-500, Dutscher) containing 1% penicillin-streptomycin (Cat #P06-07100, Dutscher) and 10% FBS (Fetal Bovine Serum) (Cat #11543407, Life Technologies). Cells were cultured at 37° C. with 5% CO2.
(§3) The day before the experiment, 6-well plates (Cat #353046, Dutscher) with 250,000 cells in 2.7 mL of medium per well were prepared.
(§4) Compound 2-3 was dissolved with filtrated H2O mQ to make a 10 mM stock solution and serial working solutions (10× solutions) were prepared with the diluent (=culture medium with 0.4% H2O mQ) at 5 μM, 10 μM, 20 μM and 40 μM: the “dilution 1” is made from the 10 mM stock solution in the culture medium and the following serial dilutions were made in the diluent to maintain a constant percentage of H2O.
(§5) Salinomycin [CAS 53003-10-4] was used as positive control and was dissolved with methanol to make a 10 mM stock solution and a 10× solution at 75 μM was prepared with the culture medium.
(§6) 300 μL of compound 2-3 10× solutions (solutions at 10 μM, 20 μM and 40 μM for 6 hours of treatment and solutions at 5 μM, 10 μM and 20 μM for 24 hours of treatment) or 300 μL of diluent (=non-treated (NT) condition) or 300 μL of Salinomycin 10× solution were dispensed in the appropriate wells (4 wells/condition). After cells treatment, 6-well plates were returned to incubator for 6 hours or 24 hours.
(§7) After 6 hours or 24 hours of cells treatment, the medium was removed from each well. The cells were carefully rinsed with PBS (phosphate-buffered saline, Cat #L0615-500, Dutscher) and detached with 500 μL per well of a trypsin solution. After 5 min of trypsin (Cat #L0930-100, Dutscher) incubation at 37° C., 800 μL of medium was added per well and transferred to a 1.5 mL tube. Then, 800 μL of PBS was used to rinse each well and the corresponding solution was pooled in each corresponding 1.5 mL tube. […] Total protein concentration was assessed using the Bradford reagent (Cat #B6916-500ML, Sigma-Aldrich) and cellular lysates were stored at −80° C. until catalytic activity measurement. […]

[3] = test system: cathepsins B and L (CTSB/L); assay: Overall cathepsins B and L (CTSB/L) peptidase activity in lysates of treated HepG2 cells (Z-FR-AMC substrate); assay type: cell-based; details: HepG2; 7.5 μM, 6 hours and 24 hours
Procedure: as §1, §2, §3, §4, §5, §6, §7

[4] = target: T2, cathepsin D (CTSD) (Homo sapiens, UniProt P07339); assay: Cathepsin D (CTSD) peptidase activity in lysates of treated HepG2 cells (MOCAc quenched fluorogenic substrate); assay type: cell-based; details: HepG2; 7.5 μM, 6 hours and 24 hours
T2 construct: cell lysates (1 μg of total proteins) were pre-incubated with citrate buffer pH 4.0; endogenous in cells; host or cells: HepG2
Procedure: as §1, §2, §3, §4
Salinomycin [CAS 53003-10-4] was used as positive control and was dissolved with methanol to make a 10 mM stock solution and a 10× solution at 75 μM was prepared with the culture medium. […]
After 6 hours or 24 hours of cells treatment, the medium was removed from each well. […] Total protein concentration was assessed using the Bradford reagent (Cat #B6916-500ML, Sigma-Aldrich) and cellular lysates were stored at −80° C. until catalytic activity measurement. […]

[5] = test system: diethyl nitrosamine (DEN) cirrhotic rat model of liver fibrosis; assay: DEN induced cirrhosis in rats, study 1: Sirius red quantification of liver fibrosis; assay type: in vivo; details: group 2: Sorafenib 10 mg/kg/day p.o. q.d., 6 weeks after 14 weeks DEN
Description: This animal model allows developing an extensive liver fibrosis, leading to a compensated liver cirrhosis with a multifocal hepatocarcinoma (HCC) after 14 weeks of induction (Schiffer, E. et al. Hepatology 2005 (41), 307-314). The DEN cirrhotic rat animal model was used here as a specific animal model of liver fibrosis.
Forty two Fisher 344 male rat (obtained from Charles River Laboratories France, including spare animals), weighting approximately 280 g at the start of the study, were randomized in 5 groups of 8 (groups 1, 2, 3 and 5) or 6 (group 4) animals and housed with 3 animals per cage, given free access to food and water and allowed to acclimate for at least 5 days prior to test initiation.
The DEN cirrhotic rat model was obtained after 14 weekly intraperitoneal injections of DEN (intra-peritoneal injections (i.p.) of DEN at 50 mg/kg/week). The animals were then treated according to Table 9 during 6 weeks. In this in vivo experiment, the anti-fibrotic activity of compound 2-3 was evaluated in liver fibrosis animal model, alone or in combination with Sorafenib (a multikinase inhibitor of Raf-1, B-Raf, VEGFR-2, VEGFR3, PDGFRβ, Flt3 and c-Kit). After 6 weeks of treatment, all animals were sacrificed using CO2 and rat livers were collected for analysis. The quantification of the liver fibrotic tissue was evaluated by Sirius red staining of rat liver sections.
Group 1 contained 8 animals which were daily dosed (q.d.) by oral gavage (per os, p.o.) with the vehicle during 6 weeks.
Group 2 contained 8 animals which were daily dosed (q.d.) by oral gavage (per os, p.o.) with Sorafenib at 10 mg/kg/day during 6 weeks.
Group 3 contained 8 animals which were daily dosed (q.d.) by oral gavage (per os, p.o.) with compound 2-3 at 15 mg/kg/day during 6 weeks.
Group 4 contained 6 animals which were daily dosed (q.d.) by oral gavage (per os, p.o.) with compound 2-3 at 15 mg/kg/day in combination with Sorafenib at 10 mg/kg/day during 6 weeks.
Group 5 contained 8 animals which were daily dosed (q.d.) by oral gavage (per os, p.o.) with compound 2-3 at 30 mg/kg/day during 6 weeks. […]

T2 sequence (P07339 65-412): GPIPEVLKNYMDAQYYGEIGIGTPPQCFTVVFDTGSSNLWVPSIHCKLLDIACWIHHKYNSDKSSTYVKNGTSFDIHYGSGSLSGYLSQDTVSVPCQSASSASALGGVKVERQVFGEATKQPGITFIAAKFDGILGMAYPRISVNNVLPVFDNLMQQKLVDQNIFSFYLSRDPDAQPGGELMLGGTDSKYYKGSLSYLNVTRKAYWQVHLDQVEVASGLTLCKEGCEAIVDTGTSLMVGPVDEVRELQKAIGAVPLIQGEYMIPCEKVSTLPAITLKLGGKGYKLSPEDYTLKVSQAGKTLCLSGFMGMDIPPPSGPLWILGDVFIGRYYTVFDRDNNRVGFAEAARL

Q: How did the “reduction of the level of collagen fibers deposition (Sirius red) compared to the control group” value [1] turn out when CC(C)(C)NC1CCN(c2cc(NCc3ccc(F)cc3)nc3ccccc23)CC1 [5-3, 2-(4-fluorobenzylamino)-4-(4-tert-butylaminopiperidin-1-yl)-quinoline] was run?
A: 24%

Q: Which results are given for CC[C@@H](C(=O)[C@@H](C)[C@@H](O)[C@H](C)[C@@H]1O[C@@H]([C@@H](CC)C(=O)O)CC[C@@H]1C)[C@H]1O[C@]2(C=C[C@@H](O)[C@]3(CC[C@@](C)([C@H]4CC[C@](O)(CC)[C@H](C)O4)O3)O2)[C@H](C)C[C@@H]1C [Salynomycin, Salinomycin, reference compound]?
A: proteolytic activity of cathepsin B (positive control) [2]: significantly decreased; proteolytic activity of cathepsins B/L (positive control) [3]: significantly decreased; proteolytic activity of cathepsin D (positive control) [4]: significantly decreased

Q: Which “reduction of the level of collagen fibers deposition (Sirius red) compared to the control group” value [5] does the source give for CNC(=O)c1cc(Oc2ccc(NC(=O)Nc3ccc(Cl)c(C(F)(F)F)c3)cc2)ccn1 [Sorafenib, reference compound] here?
A: 13.6%
